Results as given in patent US8536209B2, “Aminotriazole derivatives as ALX agonists” (Actelion Pharmaceuticals Ltd., priority 2007, dated 2013).

target: T1, recombinant human ALX receptor (Homo sapiens, UniProt P25090); test: Intracellular calcium measurements (FLIPR), ALX receptor agonistic activity; format: cell-based; settings: HEK293-hALXR-Gα16 cells, normalized to WKYMVm 10 nM
T1 construct: expressed in transfected cells; host or cells: HEK293 (HEK293-hALXR-Gα16)
T1 sequence (P25090 1-351): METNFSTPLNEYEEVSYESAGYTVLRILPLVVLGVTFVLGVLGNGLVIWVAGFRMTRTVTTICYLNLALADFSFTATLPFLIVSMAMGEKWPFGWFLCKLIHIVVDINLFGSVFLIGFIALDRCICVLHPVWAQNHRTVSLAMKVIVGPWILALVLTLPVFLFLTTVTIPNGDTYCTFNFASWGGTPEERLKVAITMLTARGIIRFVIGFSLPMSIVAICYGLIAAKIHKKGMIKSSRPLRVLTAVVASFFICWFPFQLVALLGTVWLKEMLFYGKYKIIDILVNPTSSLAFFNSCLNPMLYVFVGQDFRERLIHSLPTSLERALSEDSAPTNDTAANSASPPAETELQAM
Protocol: The ALX receptor agonistic activity of the compounds of formula (I) is determined in accordance with the following experimental method.
Intracellular Calcium Measurements:
Cells expressing recombinant human ALX receptor and the G-protein Gα16 (HEK293-hALXR-Gα16) were grown to 80% confluency in Growing Medium (GM). Cells were detached from culture dishes with a cell dissociation buffer (Invitrogen, 13151-014), and collected by centrifugation at 1,000 rpm at RT for 5 min in Assay Buffer (AB) (equal parts of Hank's BSS (Gibco, 14065-049) and DMEM without Phemol Red (Gibco, 11880-028)). After 60 min incubation at 37° C. under 5% CO2 in AB supplemented with 1 μM Fluo-4 (AM) (TEFLABS.COM, 0152), 0.04% (v/v) Pluronic F-127 (Molecular Probes, P6866), and 20 mM HEPES (Gibco, 15630-056), the cells were washed and resuspended in AB. They were then seeded onto 384-well FLIPR assay plates (Greiner, 781091) at 50′000 cells in 70 μl per well and sedimented by centrifugation at 1′000 rpm for 1 min. Stock solutions of test compounds were made up at a concentration of 10 mM in DMSO, and serially diluted in AB to concentrations required for activation dose response curves. WKYMVm (Phoenix Peptides) was used as a reference agonist. A FLIPR^384 instrument (Molecular Devices) was operated according to the manufacturer's standard instructions, adding 4 μl of test compound dissolved at 10 mM in DMSO and diluted prior to the experiment in assay buffer to obtain the desired final concentration. Changes in fluorescence were monitored before and after the addition of test compounds at lex=488 nm and lem=540 nm. Emission peak values above base level after compounds addition were exported after base line subtraction. Values were normalized to high-level control (WKYMVm compound, 10 nM final concentration) after subtraction of the base line value (AB addition). The program XLlfit 3.0 (IDBS) was used to fit the data to a single site dose response curve of the equation (A+((B−A)/(1+((C/x)^D)))) and to calculate the EC50 values.

| EC50 | SMILES |
| --- | --- |
| 1.4 nM | CC(=O)c1nc(Cn2ncc(NC(=O)OCc3ccccc3Cl)n2)co1 [Example 104, [2-(2-Acetyl-oxazol-4-ylmethyl)-2H-[1,2,3]triazol-4-yl]-carbamic acid 2-chloro-benzyl ester] |
| 1.9 nM | CC(=O)c1ccc(Cn2ncc(NC(=O)c3ncoc3-c3cccc(N(C)C)c3)n2)o1 [Example 38, 5-(3-Dimethylamino-phenyl)-oxazole-4-carboxylic acid [2-(5-acetyl-furan-2-ylmethyl)-2H-[1,2,3]triazol-4-yl]-amide] |
| 21 nM | CC(=O)c1ccnc(Cn2ncc(NC(=O)OCc3ccccc3Cl)n2)c1 [Example 41, [2-(4-Acetyl-pyridin-2-ylmethyl)-2H-[1,2,3]triazol-4-yl]-carbamic acid 2-chloro-benzyl ester] |
| 2 nM | CC(=O)c1ccc(Cn2ncc(NC(=O)c3nc(C)oc3-c3cccc(C(F)(F)F)c3)n2)o1 [Example 26, 2-Methyl-5-(3-trifluoromethyl-phenyl)-oxazole-4-carboxylic acid [2-(5-acetyl-furan-2-ylmethyl)-2H-[1,2,3]triazol-4-yl]-amide] |
| 53 nM | COc1cc(-c2ocnc2C(=O)Nc2cnn(Cc3ccc(C(C)=O)o3)n2)ccc1C [Example 21, 5-(3-Methoxy-4-methyl-phenyl)-oxazole-4-carboxylic acid [2-(5-acetyl-furan-2-ylmethyl)-2H-[1,2,3]triazol-4-yl]-amide] |
| 1.8 nM | CC(=O)c1ccc(Cn2ncc(NC(=O)c3ncoc3-c3ccccc3)n2)o1 [Example 1, 5-Phenyl-oxazole-4-carboxylic acid [2-(5-acetyl-furan-2-ylmethyl)-2H-[1,2,3]triazol-4-yl]-amide] |
| 5.2 nM | COCCc1nc(C(=O)Nc2cnn(Cc3ccc(C(C)=O)o3)n2)c(-c2ccccc2)o1 [Example 93, 2-(2-Methoxy-ethyl)-5-phenyl-oxazole-4-carboxylic acid [2-(5-acetyl-furan-2-ylmethyl)-2H-[1,2,3]triazol-4-yl]-amide] |
| 203 nM | CC(=O)c1cccc(Cn2ncc(NC(=O)c3ncoc3-c3ccccc3)n2)n1 [Example 43, 5-Phenyl-oxazole-4-carboxylic acid [2-(6-acetyl-pyridin-2-ylmethyl)-2H-[1,2,3]triazol-4-yl]-amide] |
| 23 nM | CC(=O)c1cnc(Cn2ncc(NC(=O)OCc3ccccc3Cl)n2)s1 [Example 71, [2-(5-Acetyl-thiazol-2-ylmethyl)-2H-[1,2,3]triazol-4-yl]-carbamic acid 2-chloro-benzyl ester] |
| 2.1 nM | COCCc1cccc(-c2ocnc2C(=O)Nc2cnn(Cc3ccc(C(C)=O)o3)n2)c1 [Example 42, 5-[3-(2-Methoxy-ethyl)-phenyl]-oxazole-4-carboxylic acid [2-(5-acetyl-furan-2-ylmethyl)-2H-[1,2,3]triazol-4-yl]-amide] |
| 4.9 nM | CC(F)(F)CCCCn1ncc(NC(=O)c2ncoc2-c2ccccc2)n1 [Example 36, 5-Phenyl-oxazole-4-carboxylic acid [2-(5,5-difluoro-hexyl)-2H-[1,2,3]triazol-4-yl]-amide] |
| 1.3 nM | CC(=O)c1csc(Cn2ncc(NC(=O)OCc3ccccc3Cl)n2)n1 [Example 40, [2-(4-Acetyl-thiazol-2-ylmethyl)-2H-[1,2,3]triazol-4-yl]-carbamic acid 2-chloro-benzyl ester] |
| 57 nM | CC(=O)c1cc(Cn2ncc(NC(=O)c3ncoc3-c3ccccc3)n2)cs1 [Example 49, 5-Phenyl-oxazole-4-carboxylic acid [2-(5-acetyl-thiophen-3-ylmethyl)-2H-[1,2,3]triazol-4-yl]-amide] |
| 36 nM | CC(=O)c1ccc(Cn2ncc(NC(=O)c3ncoc3-c3cccc(C(F)(F)F)n3)n2)o1 [Example 105, 5-(6-Trifluoromethyl-pyridin-2-yl)-oxazole-4-carboxylic acid [2-(5-acetyl-furan-2-ylmethyl)-2H-[1,2,3]triazol-4-yl]-amide] |
| 24 nM | CS(=O)(=O)c1ccc(Cn2ncc(NC(=O)c3ncoc3-c3ccccc3)n2)o1 [Example 37, 5-Phenyl-oxazole-4-carboxylic acid [2-(5-methanesulfonyl-furan-2-ylmethyl)-2H-[1,2,3]triazol-4-yl]-amide] |
| 1.2 nM | CC(=O)c1ccc(Cn2ncc(NC(=O)/C=C/c3cccc(OC(F)(F)F)c3)n2)o1 [Example 8, (E)-N-[2-(5-Acetyl-furan-2-ylmethyl)-2H-[1,2,3]triazol-4-yl]-3-(3-trifluoromethoxy-phenyl)-acrylamide] |
| 8.5 nM | CC(=O)c1cccc(Cn2ncc(NC(=O)OCc3ccccc3Cl)n2)c1 [Example 35, [2-(3-Acetyl-benzyl)-2H-[1,2,3]triazol-4-yl]-carbamic acid 2-chloro-benzyl ester] |
| 0.8 nM | CC(=O)c1ccc(Cn2ncc(NC(=O)c3nc(C4CC4)oc3-c3ccccc3)n2)o1 [Example 30, 2-Cyclopropyl-5-phenyl-oxazole-4-carboxylic acid [2-(5-acetyl-furan-2-ylmethyl)-2H-[1,2,3]triazol-4-yl]-amide] |
| 98 nM | CC(=O)c1ccc(Cn2ncc(NC(=O)c3nc(C)sc3-c3cccc(C)c3)n2)o1 [Example 50, 2-Methyl-5-m-tolyl-thiazole-4-carboxylic acid [2-(5-acetyl-furan-2-ylmethyl)-2H-[1,2,3]triazol-4-yl]-amide] |
| 2.8 nM | CC(=O)c1ccc(Cn2ncc(NC(=O)c3ncoc3-c3ccccc3)n2)s1 [Example 33, 5-Phenyl-oxazole-4-carboxylic acid [2-(5-acetyl-thiophen-2-ylmethyl)-2H-[1,2,3]triazol-4-yl]-amide] |
| 0.7 nM | CC(=O)c1coc(Cn2ncc(NC(=O)c3ncoc3-c3ccccc3)n2)n1 [Example 91, 5-Phenyl-oxazole-4-carboxylic acid [2-(4-acetyl-oxazol-2-ylmethyl)-2H-[1,2,3]triazol-4-yl]-amide] |
| 1.6 nM | CC(=O)CCCCn1ncc(NC(=O)c2ncoc2-c2ccccc2)n1 [Example 5, 5-Phenyl-oxazole-4-carboxylic acid [2-(5-oxo-hexyl)-2H-[1,2,3]triazol-4-yl]-amide] |
| 8.1 nM | CC(=O)c1ncc(Cn2ncc(NC(=O)c3nc(C)oc3-c3cccc(F)c3)n2)o1 [Example 99, 5-(3-Fluoro-phenyl)-2-methyl-oxazole-4-carboxylic acid [2-(2-acetyl-oxazol-5-ylmethyl)-2H-[1,2,3]triazol-4-yl]-amide] |
